Results: PMC5540273, “Progress towards a public chemogenomic set for protein kinases and a call for contributions” (PLoS ONE, 2017)

Assays:
Experiment in all cases: KINOMEscan competition binding
BMPR1B = BMPR1B (Homo sapiens, UniProt O00238); conditions: read-out: %Inh BMPR1B
ERBB2 = ERBB2 (Homo sapiens, UniProt P04626); conditions: read-out: %Inh ERBB2
DCAMKL1 = molecular target: T1, DCAMKL1 (Homo sapiens, UniProt O15075); conditions: read-out: %Inh DCAMKL1
T1 sequence (O15075 1-740): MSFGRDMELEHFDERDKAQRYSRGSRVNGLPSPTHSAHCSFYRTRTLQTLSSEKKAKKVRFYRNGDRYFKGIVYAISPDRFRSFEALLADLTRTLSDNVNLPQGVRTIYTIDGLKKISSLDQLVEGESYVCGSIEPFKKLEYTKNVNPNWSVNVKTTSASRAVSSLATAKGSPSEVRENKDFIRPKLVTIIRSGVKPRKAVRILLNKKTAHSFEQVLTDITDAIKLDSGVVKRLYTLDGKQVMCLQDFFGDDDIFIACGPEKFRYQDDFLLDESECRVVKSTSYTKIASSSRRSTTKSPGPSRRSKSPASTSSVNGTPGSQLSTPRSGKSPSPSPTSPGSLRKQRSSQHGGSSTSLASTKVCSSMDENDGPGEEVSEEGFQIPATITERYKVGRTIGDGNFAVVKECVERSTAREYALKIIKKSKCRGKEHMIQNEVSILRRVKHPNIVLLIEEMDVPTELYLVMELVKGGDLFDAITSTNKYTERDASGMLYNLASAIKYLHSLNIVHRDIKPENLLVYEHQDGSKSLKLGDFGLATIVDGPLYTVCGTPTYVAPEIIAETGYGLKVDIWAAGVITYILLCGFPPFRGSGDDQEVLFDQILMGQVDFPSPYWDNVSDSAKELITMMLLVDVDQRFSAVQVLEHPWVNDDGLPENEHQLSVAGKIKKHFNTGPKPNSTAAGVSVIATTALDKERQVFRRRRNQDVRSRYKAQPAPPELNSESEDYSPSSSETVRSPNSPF

BRAF = BRAF (Homo sapiens, UniProt P15056); conditions: read-out: %Inh BRAF
BMPR2 = molecular target: T2, BMPR2 (Homo sapiens, UniProt Q13873); conditions: read-out: %Inh BMPR2
T2 sequence (Q13873 27-1038): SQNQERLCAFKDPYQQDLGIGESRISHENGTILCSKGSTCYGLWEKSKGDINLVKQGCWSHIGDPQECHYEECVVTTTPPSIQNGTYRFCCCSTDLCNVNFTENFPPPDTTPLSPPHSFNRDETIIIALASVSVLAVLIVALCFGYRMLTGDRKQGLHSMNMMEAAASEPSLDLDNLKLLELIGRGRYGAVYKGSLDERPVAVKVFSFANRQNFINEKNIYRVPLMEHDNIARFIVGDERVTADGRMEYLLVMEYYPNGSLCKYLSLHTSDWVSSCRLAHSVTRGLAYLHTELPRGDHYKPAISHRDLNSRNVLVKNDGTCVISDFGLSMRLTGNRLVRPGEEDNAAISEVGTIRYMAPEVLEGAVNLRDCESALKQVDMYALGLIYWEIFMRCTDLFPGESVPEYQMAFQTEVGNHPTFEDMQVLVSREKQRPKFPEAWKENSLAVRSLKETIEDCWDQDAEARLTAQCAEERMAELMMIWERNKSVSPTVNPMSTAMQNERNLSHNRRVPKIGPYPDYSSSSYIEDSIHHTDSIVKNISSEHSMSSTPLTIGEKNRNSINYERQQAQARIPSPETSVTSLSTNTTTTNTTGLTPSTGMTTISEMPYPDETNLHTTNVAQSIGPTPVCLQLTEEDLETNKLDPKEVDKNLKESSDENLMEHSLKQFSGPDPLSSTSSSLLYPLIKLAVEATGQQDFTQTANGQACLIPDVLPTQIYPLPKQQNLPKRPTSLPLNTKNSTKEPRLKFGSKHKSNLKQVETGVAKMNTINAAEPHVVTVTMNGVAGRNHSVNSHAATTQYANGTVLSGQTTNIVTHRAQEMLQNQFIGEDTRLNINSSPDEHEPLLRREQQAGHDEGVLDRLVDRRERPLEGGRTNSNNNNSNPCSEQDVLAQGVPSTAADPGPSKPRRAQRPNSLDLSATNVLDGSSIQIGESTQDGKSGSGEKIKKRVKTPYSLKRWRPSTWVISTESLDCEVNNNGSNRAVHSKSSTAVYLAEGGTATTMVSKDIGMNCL

LYN = LYN (Homo sapiens, UniProt P07948); conditions: read-out: %Inh LYN
FLT4 = FLT4 (Homo sapiens, UniProt P35916); conditions: read-out: %Inh FLT4
FRK = FRK (Homo sapiens, UniProt P42685); conditions: read-out: %Inh FRK
CHEK2 = CHEK2 (Homo sapiens, UniProt O96017); conditions: read-out: %Inh CHEK2
FGFR3 = FGFR3 (Homo sapiens, UniProt P22607); conditions: read-out: %Inh FGFR3
HCK = HCK (Homo sapiens, UniProt P08631); conditions: read-out: %Inh HCK
Sequence of HCK (P08631 whole entry): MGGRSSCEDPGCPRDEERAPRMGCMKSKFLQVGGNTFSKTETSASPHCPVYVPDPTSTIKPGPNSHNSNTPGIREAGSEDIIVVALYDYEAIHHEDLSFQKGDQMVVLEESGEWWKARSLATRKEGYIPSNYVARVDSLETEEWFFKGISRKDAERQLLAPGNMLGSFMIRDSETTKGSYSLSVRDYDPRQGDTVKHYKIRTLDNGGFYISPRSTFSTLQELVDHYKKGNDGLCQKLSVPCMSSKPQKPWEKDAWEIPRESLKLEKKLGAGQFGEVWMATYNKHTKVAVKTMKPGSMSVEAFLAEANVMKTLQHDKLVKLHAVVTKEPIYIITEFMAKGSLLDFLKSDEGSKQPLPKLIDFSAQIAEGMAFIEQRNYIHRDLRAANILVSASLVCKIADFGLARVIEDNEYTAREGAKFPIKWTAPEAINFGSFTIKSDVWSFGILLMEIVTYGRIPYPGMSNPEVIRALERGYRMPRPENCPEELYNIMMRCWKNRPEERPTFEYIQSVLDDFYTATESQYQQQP

Sequence of FRK (P42685 whole entry): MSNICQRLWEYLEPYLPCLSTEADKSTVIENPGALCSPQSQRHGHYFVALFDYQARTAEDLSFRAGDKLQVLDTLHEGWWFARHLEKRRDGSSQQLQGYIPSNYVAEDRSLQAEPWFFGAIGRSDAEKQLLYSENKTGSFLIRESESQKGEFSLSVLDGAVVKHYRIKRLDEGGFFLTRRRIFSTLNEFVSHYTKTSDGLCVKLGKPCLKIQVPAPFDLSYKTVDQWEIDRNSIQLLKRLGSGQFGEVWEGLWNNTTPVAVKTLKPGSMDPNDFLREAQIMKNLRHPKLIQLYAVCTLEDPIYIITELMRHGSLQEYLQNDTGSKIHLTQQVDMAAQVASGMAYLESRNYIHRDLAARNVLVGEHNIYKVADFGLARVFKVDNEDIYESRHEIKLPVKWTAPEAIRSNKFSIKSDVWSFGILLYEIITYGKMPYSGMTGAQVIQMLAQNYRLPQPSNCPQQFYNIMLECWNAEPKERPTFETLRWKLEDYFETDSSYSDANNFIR
Sequence of FGFR3 (P22607 23-806): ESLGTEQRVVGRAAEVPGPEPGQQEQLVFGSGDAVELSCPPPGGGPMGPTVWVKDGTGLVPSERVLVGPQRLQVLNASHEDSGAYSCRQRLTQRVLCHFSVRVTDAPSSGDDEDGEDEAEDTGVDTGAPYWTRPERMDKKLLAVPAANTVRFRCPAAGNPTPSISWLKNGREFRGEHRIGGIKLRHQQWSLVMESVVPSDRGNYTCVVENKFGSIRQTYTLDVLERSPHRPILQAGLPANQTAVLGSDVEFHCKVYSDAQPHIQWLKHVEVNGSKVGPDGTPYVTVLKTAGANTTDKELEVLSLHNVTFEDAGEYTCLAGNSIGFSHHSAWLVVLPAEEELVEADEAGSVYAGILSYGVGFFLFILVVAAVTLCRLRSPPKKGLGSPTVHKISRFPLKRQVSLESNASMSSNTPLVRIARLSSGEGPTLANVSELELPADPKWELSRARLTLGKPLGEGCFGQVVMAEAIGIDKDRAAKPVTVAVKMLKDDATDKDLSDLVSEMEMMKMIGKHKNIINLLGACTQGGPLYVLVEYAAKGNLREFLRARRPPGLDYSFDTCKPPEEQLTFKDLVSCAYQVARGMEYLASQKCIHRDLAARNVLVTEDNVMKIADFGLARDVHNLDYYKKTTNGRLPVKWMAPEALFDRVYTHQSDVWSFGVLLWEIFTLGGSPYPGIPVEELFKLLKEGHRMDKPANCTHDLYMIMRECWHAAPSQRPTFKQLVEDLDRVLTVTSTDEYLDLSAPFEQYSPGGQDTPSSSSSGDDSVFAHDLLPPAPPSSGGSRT
Sequence of BMPR1B (O00238 14-502): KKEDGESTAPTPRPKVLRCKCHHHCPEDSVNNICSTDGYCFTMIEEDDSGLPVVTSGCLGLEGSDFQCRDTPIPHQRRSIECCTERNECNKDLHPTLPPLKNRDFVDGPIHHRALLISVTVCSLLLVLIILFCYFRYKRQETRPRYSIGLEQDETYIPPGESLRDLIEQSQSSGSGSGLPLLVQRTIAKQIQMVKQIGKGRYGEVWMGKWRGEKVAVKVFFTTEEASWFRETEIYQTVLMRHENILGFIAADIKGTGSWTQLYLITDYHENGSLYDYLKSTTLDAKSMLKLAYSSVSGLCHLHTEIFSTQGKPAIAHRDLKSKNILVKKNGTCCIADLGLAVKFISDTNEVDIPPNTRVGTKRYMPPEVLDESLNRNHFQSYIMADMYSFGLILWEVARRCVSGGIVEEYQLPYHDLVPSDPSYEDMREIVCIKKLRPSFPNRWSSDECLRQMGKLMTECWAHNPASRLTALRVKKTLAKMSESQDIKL
Sequence of BRAF (P15056 whole entry): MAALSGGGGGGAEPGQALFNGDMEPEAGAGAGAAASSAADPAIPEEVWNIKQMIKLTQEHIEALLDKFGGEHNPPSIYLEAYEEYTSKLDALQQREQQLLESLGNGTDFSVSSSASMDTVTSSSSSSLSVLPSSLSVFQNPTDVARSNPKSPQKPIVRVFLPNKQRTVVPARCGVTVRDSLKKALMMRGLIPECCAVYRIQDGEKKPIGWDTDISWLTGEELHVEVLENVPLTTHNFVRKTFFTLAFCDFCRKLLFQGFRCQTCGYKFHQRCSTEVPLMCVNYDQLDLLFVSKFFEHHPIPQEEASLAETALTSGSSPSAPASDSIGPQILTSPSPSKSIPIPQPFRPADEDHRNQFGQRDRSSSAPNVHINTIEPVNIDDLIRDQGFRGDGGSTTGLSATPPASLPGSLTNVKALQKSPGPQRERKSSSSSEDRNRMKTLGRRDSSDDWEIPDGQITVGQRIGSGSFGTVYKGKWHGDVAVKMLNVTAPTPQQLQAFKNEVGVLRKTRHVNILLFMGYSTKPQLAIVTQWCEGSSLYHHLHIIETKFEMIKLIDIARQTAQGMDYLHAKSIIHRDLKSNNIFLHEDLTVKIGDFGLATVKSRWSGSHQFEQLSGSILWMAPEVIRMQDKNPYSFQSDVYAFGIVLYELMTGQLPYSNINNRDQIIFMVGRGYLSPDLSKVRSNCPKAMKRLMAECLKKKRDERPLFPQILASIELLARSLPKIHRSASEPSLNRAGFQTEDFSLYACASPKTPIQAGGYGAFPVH
Sequence of CHEK2 (O96017 whole entry): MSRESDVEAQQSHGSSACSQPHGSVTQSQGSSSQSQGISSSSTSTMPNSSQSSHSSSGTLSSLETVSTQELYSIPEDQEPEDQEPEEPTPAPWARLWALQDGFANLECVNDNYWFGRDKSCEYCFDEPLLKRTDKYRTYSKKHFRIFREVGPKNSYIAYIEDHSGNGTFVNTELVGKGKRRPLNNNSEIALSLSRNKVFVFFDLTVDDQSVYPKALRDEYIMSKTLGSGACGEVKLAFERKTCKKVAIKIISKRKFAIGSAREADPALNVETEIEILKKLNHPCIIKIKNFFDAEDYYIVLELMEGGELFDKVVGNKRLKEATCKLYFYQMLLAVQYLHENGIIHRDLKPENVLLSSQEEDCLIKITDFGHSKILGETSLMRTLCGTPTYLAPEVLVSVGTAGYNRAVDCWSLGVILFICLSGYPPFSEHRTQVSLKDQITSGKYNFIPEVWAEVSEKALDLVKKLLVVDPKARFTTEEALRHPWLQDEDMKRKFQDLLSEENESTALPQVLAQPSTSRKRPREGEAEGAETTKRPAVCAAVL
Sequence of FLT4 (P35916 25-1363): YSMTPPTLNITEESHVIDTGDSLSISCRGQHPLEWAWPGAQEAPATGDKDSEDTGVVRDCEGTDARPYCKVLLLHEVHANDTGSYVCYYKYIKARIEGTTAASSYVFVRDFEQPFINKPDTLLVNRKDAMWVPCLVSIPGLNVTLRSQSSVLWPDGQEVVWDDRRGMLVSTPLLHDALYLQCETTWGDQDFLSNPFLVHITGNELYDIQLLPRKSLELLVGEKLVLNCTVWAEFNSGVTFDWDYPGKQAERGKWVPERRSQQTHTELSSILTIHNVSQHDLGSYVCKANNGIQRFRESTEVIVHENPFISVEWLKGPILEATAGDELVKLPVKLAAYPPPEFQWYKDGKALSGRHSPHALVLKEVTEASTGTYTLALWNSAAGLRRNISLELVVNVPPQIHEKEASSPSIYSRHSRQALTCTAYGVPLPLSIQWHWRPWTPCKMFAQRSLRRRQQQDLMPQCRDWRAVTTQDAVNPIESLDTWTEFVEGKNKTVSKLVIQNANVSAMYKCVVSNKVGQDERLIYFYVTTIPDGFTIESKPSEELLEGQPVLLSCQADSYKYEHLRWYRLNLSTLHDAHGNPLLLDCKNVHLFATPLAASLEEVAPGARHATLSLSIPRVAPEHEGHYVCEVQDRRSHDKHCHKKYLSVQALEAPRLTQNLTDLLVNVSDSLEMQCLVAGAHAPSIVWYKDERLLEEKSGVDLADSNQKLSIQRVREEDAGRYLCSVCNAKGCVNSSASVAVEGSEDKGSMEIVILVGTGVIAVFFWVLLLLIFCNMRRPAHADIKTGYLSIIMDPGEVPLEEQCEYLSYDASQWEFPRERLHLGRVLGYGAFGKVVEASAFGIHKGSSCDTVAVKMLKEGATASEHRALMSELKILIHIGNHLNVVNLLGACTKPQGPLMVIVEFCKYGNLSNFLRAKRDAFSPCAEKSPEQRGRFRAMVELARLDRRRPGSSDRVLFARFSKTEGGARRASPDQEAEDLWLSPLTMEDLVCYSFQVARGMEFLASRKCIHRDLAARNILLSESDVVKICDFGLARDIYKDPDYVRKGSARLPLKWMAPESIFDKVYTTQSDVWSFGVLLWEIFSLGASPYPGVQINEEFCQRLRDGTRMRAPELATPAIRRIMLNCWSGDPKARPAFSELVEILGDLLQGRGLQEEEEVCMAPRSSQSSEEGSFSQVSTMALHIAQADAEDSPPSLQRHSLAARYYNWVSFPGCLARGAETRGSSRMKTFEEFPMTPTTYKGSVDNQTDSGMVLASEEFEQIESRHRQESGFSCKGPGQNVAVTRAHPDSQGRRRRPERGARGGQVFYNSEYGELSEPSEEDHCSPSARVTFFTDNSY

| SMILES | inhibition at 1 µM (BMPR1B) [%] | inhibition at 1 µM (ERBB2) [%] | inhibition at 1 µM (DCAMKL1) [%] | inhibition at 1 µM (BRAF) [%] | inhibition at 1 µM (BMPR2) [%] | inhibition at 1 µM (LYN) [%] | inhibition at 1 µM (FLT4) [%] | inhibition at 1 µM (FRK) [%] | inhibition at 1 µM (CHEK2) [%] | inhibition at 1 µM (FGFR3) [%] | inhibition at 1 µM (HCK) [%] |
| --- | --- | --- | --- | --- | --- | --- | --- | --- | --- | --- | --- |
| CS(=O)(=O)Cc1ccc(Nc2nccc(-c3c(-c4cccc(NC(=O)C5CCCCC5)c4)nn4ncccc34)n2)cc1 [UNC10225159A] | 19 | 25 | 0 | 20 | 24 | 16 | 52 | 4 | 0 | 16 | 1 |
| Cn1cc(-c2cnc(N)c3c(-c4ccc5c(c4)CCN5C(=O)Cc4ccccc4)csc23)cn1 [UNC10225012A] | 6 | 0 | 0 | 0 | 6 | 65 | 31 | 38 | 0 | 49 | 86 |
| O=c1cc(N2CCOCC2)nc2n(Cc3cccc(Cl)c3Cl)c(C3CC3)nn12 [UNC10225469A] | 0 | 0 | 0 | 0 | 13 | 0 | 10 | 0 | 0 | 0 | 0 |
| COc1cccc(OC)c1C(=O)Nc1cccc(-c2nn3ccccc3c2-c2ccnc(Nc3cccc(F)c3)n2)c1 [UNC10225310A] | 21 | 61 | 16 | 17 | 0 | 8 | 27 | 16 | 0 | 0 | 30 |
| Cc1ccc(NC(=O)Nc2cccc(C(F)(F)F)c2)cc1 [UNC10225187A] | 0 | 0 | 0 | 0 | 1 | 0 | 12 | 0 | 0 | 5 | 0 |
